Drawing on PubChem BioAssay (NCI), this text covers TGI and GI50 for ten compounds.

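Interpolation was linear, between the two tested concentrations surrounding the appropriate level; five concentrations were tested over 48 hours in 96-well plates. GI50: concentration for 50% inhibition of growth. TGI denotes the concentration required for complete inhibition of growth.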

Among the test systems are CCRF-CEM leukemia; EKVX NSCLC; SK-MEL-5 melanoma; OVCAR-8 ovarian; UACC-257 melanoma; SN12C renal; LOX IMVI melanoma; HCT-116 colon; A549 NSCLC; IGROV1 ovarian.
Assay in all cases: inhibition of tumour cell growth, NCI panel, 48 h

With `c1cncc(C2c3[nH]c4ccccc4c3CCN2CCN2CCCCC2)c1` (stereo not given), the TGI in the experiment with CCRF-CEM leukemia was above 100 µM; in the experiment with EKVX NSCLC, above 100 µM; in the experiment with SK-MEL-5 melanoma, above 100 µM; with OVCAR-8 ovarian it was above 100 µM; with UACC-257 melanoma, 99.4 µM; in the experiment on SN12C renal, above 100 µM. The TGI in the experiment on LOX IMVI melanoma, with HCT-116 colon, in the experiment on A549 NSCLC and in the experiment with IGROV1 ovarian was above 100 µM in each case.
On to `CC/C=C\C[C@H](O)C/C=C1/C(=O)C=C[C@@H]1C/C=C\CCCC(N)=O`, for which the GI50 in the experiment with CCRF-CEM leukemia was 1.38 µM; with EKVX NSCLC it was 4.29 µM; in the experiment with SK-MEL-5 melanoma, 1.56 µM; in the experiment on OVCAR-8 ovarian, 3.03 µM; in the experiment with UACC-257 melanoma it was 1.97 µM; in the experiment with SN12C renal, 2.32 µM. Further, the GI50 was 0.35 µM in the experiment on LOX IMVI melanoma, 1.02 µM in the experiment on HCT-116 colon, 2.49 µM in the experiment on A549 NSCLC and 3.09 µM in the experiment on IGROV1 ovarian. The TGI worked out at 8.07 µM in the experiment with CCRF-CEM leukemia; 15.7 µM with EKVX NSCLC; 2.97 µM in the experiment with SK-MEL-5 melanoma; 11.4 µM in the experiment on OVCAR-8 ovarian; 5.3 µM with UACC-257 melanoma; 6.43 µM in the experiment on SN12C renal. For the same compound, the TGI worked out at 1.69 µM with LOX IMVI melanoma, 2.47 µM with HCT-116 colon, 6.01 µM in the experiment on A549 NSCLC and 12.2 µM with IGROV1 ovarian.
Consider `C=C1C(=O)O[C@H]2[C@H]1CC/C(COC(=O)c1ccc(C(=O)O)s1)=C\CC[C@@]1(C)O[C@@H]21`, for which the GI50 was 1.63 µM in the experiment on CCRF-CEM leukemia; 2.21 µM in the experiment with EKVX NSCLC; 3.64 µM in the experiment on SK-MEL-5 melanoma; 2.69 µM in the experiment on OVCAR-8 ovarian; 2.18 µM with UACC-257 melanoma; 1.74 µM in the experiment with SN12C renal. Further, the GI50 in the experiment on LOX IMVI melanoma was 1.49 µM; in the experiment with HCT-116 colon, 0.715 µM; in the experiment with A549 NSCLC, 5.35 µM; in the experiment on IGROV1 ovarian, 2.16 µM. For the same compound, the TGI turned out to be 8.66 µM in the experiment with CCRF-CEM leukemia; 5.68 µM in the experiment on EKVX NSCLC; 13.3 µM with SK-MEL-5 melanoma; 7.84 µM with OVCAR-8 ovarian; 5.47 µM in the experiment on UACC-257 melanoma; 3.5 µM in the experiment with SN12C renal. Besides, the TGI stood at 3.08 µM in the experiment on LOX IMVI melanoma, 2.03 µM in the experiment with HCT-116 colon, 18.4 µM in the experiment on A549 NSCLC and 5.82 µM in the experiment with IGROV1 ovarian.
Turning to `Cn1nnnc1[N-]Cc1ccccc1.[Au+].c1ccc([PH+](c2ccccc2)c2ccccc2)cc1`, the GI50 is 0.752 µM with CCRF-CEM leukemia; 4.08 µM with EKVX NSCLC; 1.6 µM in the experiment with SK-MEL-5 melanoma; 3.13 µM with OVCAR-8 ovarian; 2.01 µM with UACC-257 melanoma; 5.01 µM with SN12C renal. Also, the GI50 was 2.53 µM in the experiment with LOX IMVI melanoma, 3.88 µM in the experiment on HCT-116 colon, 21.2 µM with A549 NSCLC and 2.43 µM in the experiment on IGROV1 ovarian. The TGI in the experiment with CCRF-CEM leukemia came to 3.95 µM; in the experiment on EKVX NSCLC it was 5.78 µM; in the experiment on SK-MEL-5 melanoma it was 3.6 µM; in the experiment with OVCAR-8 ovarian, 10.1 µM; with UACC-257 melanoma it was 7.78 µM; in the experiment on SN12C renal, 17 µM. For the same compound, the TGI was 8.55 µM in the experiment with LOX IMVI melanoma, 13 µM in the experiment with HCT-116 colon, 71.3 µM in the experiment with A549 NSCLC and 8.16 µM with IGROV1 ovarian.
As to `CC1=C(N2CC2)C(=O)c2nc3n(c2C1=O)CCC3O` (stereo not given), the TGI in the experiment with CCRF-CEM leukemia is 13.4 µM; in the experiment with EKVX NSCLC, 1.13 µM; in the experiment with SK-MEL-5 melanoma it was 0.0562 µM; with OVCAR-8 ovarian it was 0.688 µM; in the experiment on UACC-257 melanoma, 0.513 µM; with SN12C renal it was 2.71 µM. The TGI in the experiment with LOX IMVI melanoma worked out at 1.92 µM; in the experiment with HCT-116 colon, 1.52 µM; in the experiment on A549 NSCLC, 1.49 µM; in the experiment with IGROV1 ovarian it was 1.2 µM.
With `Cc1cc2occ(C)c(=O)c2c2c1OC(C)(C)S2`, the TGI in the experiment with CCRF-CEM leukemia, with EKVX NSCLC, in the experiment with SK-MEL-5 melanoma, with OVCAR-8 ovarian, with UACC-257 melanoma and in the experiment with SN12C renal was above 100 µM in each case. In addition, the TGI in the experiment with LOX IMVI melanoma, in the experiment with HCT-116 colon, in the experiment with A549 NSCLC and in the experiment with IGROV1 ovarian was above 100 µM in each case.
For `O=C1Cc2c(-c3ccccc3)cc(-c3cccc(Cl)c3)nc2-c2ccccc2N1`, the TGI with CCRF-CEM leukemia is 50.9 µM; in the experiment with EKVX NSCLC it was 12.6 µM; in the experiment on SK-MEL-5 melanoma, above 48.7 µM; in the experiment on OVCAR-8 ovarian, 5.4 µM; in the experiment with UACC-257 melanoma it was 24.1 µM; in the experiment on SN12C renal, 16.2 µM. Moreover, the TGI was found to be 7.28 µM in the experiment with LOX IMVI melanoma, 4.13 µM with HCT-116 colon, 9.25 µM in the experiment with A549 NSCLC and 6.45 µM in the experiment on IGROV1 ovarian.
As to `CC1(C)C(=O)/C(=C\c2ccco2)C[C@]2(C)[C@H]3CC=C4[C@@H]5C[C@](C)(C(=O)O)CC[C@]5(C)CC[C@@]4(C)[C@]3(C)CC[C@@H]12`, the GI50 with CCRF-CEM leukemia is 5.9 µM; in the experiment with EKVX NSCLC it was 4.63 µM; in the experiment on SK-MEL-5 melanoma, 10.5 µM; in the experiment with OVCAR-8 ovarian, 6 µM; in the experiment on UACC-257 melanoma, 12.5 µM; in the experiment on SN12C renal, 7.64 µM. Further, the GI50 in the experiment on LOX IMVI melanoma is 9.56 µM; in the experiment with HCT-116 colon, 7.27 µM; in the experiment on A549 NSCLC, 4.21 µM; in the experiment on IGROV1 ovarian, 8.56 µM. Besides, the TGI worked out at 32.6 µM in the experiment with CCRF-CEM leukemia; 17.3 µM in the experiment with EKVX NSCLC; 22.5 µM in the experiment on SK-MEL-5 melanoma; 42.4 µM with OVCAR-8 ovarian; 38.9 µM in the experiment on UACC-257 melanoma; 26 µM in the experiment with SN12C renal. Also, the TGI came to 22.2 µM with LOX IMVI melanoma, 26.1 µM with HCT-116 colon, 21.7 µM in the experiment with A549 NSCLC and 28.3 µM with IGROV1 ovarian.
For `CCCN(CCCCC(NC(C)=O)C(=O)NCc1ccccc1)C(=O)NC` (stereo not given), the TGI in the experiment with CCRF-CEM leukemia, in the experiment with EKVX NSCLC, in the experiment with SK-MEL-5 melanoma, in the experiment with OVCAR-8 ovarian, in the experiment with UACC-257 melanoma and with SN12C renal was above 100 µM throughout. The TGI in the experiment on LOX IMVI melanoma, in the experiment on HCT-116 colon, in the experiment on A549 NSCLC and in the experiment with IGROV1 ovarian was above 100 µM each time.
With `CCc1cccc(C)c1NC(=O)CC1Sc2ccccc2NC1=O` (stereo not given), the TGI with CCRF-CEM leukemia is above 100 µM; in the experiment with EKVX NSCLC, above 100 µM; with SK-MEL-5 melanoma, above 100 µM; with OVCAR-8 ovarian it was above 100 µM; in the experiment on UACC-257 melanoma, 57.7 µM; in the experiment on SN12C renal, above 100 µM. Moreover, the TGI in the experiment with LOX IMVI melanoma, in the experiment on HCT-116 colon, in the experiment on A549 NSCLC and with IGROV1 ovarian was above 100 µM each time.
